Here are results for two molecules from paper PMC8044178, “Structural basis of norepinephrine recognition and transport inhibition in neurotransmitter transporters” (Nature Communications, 2021).

One experiment has as its target T1, dDATNET (Drosophila melanogaster, UniProt Q7K4Y6, D121G/DEL162-202/F471L/L415A/S426M/V74A).
T1 construct: GFP-8x-His (C); made in house; host or cells: HEK293S GnTI- cells, BacMam baculovirus transduction
Kind of experiment: biochemical. The experiment is classed as binding. The following applies: read-out: Percent binding. The protocol: Binding assays were performed with 20 nM of purified dDAT protein by scintillation proximity assay. For determining nisoxetine Kd, [^3H] Nisoxetine (Perkin Elmer) (in 1:5 molar ratio) was used in the range of 0.1 nM to 500 nM with 100 µM desipramine added to the control samples. Competition assays were done with 50 nM [^3H] […] The assays were done in 1 mM DDM, 0.2 mM CHS, 20 mM Tris-Cl (pH 8), 300 mM NaCl and 5% glycerol. The background values were subtracted to plot the final curves in GraphPad prism v5.0.1 and the Kd values were calculated. The IC50 values obtained from binding competition assays were used to deduce the Ki values by Cheng–Prusoff’s equation.

A further experiment relates to hNET. The conditions noted are these: read-out: IC50, inhibition of hNET; cited from earlier work.

The term IC50 denotes the concentration that gives 50% inhibition.

Consider `CNCC[C@H](Oc1cccc2ccccc12)c1cccs1` [Dulox], for which, on dDATNET, the remaining activity at 0.03 µM was found to be 86.3%, the remaining activity at 0.1 µM turned out to be 57.8%, the remaining activity at 0.3 µM worked out at 34.1% and the remaining activity at 1 µM was determined as 18.4%.
`CN(C)C[C@H]1CCCC[C@]1(O)c1cccc(O)c1` [desmetramadol, O-desmethyl tramadol]: the IC50 with hNET was 6 µM.
